Results from PMC11679558, “Novel Peptidomimetic Cyclo-{E(I)-E(W)}Na (CP-88) with Hematopoietic Activity Sustained in Invasive and Oral Administration: Experimental and Preclinical Evaluation” (International Journal of Molecular Sciences, 2024).
Peptide text beside a SMILES is read from it.

Legend:
[1] = Interspecies extrapolation of the toxicological results to humans; conditions: interspecies extrapolation from the toxicological test results
Procedure: The toxicological test results conclude that in humans, considering interspecies extrapolation, CP-88 can be practically safe with a single and course administration in doses of up to 100 μg/kg. In the first phase of clinical trials, it is advisable to test the drug for tolerability, starting with a dose of 1 μg/kg. The dose can be increased to 10 μg/kg daily with no adverse reactions detected in the clinical results.

[2] = test system: mice (CBA/C57BL6) F1; assay: Acute toxicity of CP-88 in mice; format: in vivo; conditions: male and female mice, intraperitoneally once, 0.2 mL per animal; doses 500, 1000 and 10,000 μg/kg
Procedure: This study of acute and chronic toxicity of CP-88 was conducted under the requirements of regulatory documents that regulate this study and are part of a complex of preclinical studies on acute and chronic toxicity that are required for the registration of drugs. Fifty-six male and fifty-six female mice, line (CBA/C57BL6) F1, were used for this study.
To determine acute toxicity, peptide was administered to male and female mice (CBA/C57BL6) F1 (56 male and 56 female mice). The animals were obtained from the Scientific and Production Enterprise “Stolbovaya” Laboratory Animal Nursery, Moscow Region, at the age of 4 weeks. Upon receipt, an external examination of the animal’s condition was conducted.
The drug was administered in the form of aqueous solutions intraperitoneally in doses of 500, 1000, and 10,000 μg/kg in a volume of 0.2 mL per mouse, which exceeded the effective doses of the drug by 50 to 1000 times. Animals of the same batch, injected with distilled water in a volume of 0.2 mL per animal (control substance), were used as a biological control.

[3] = Pharmacokinetics of Stemokin in mice using 3H-Stemokin; format: in vivo; conditions: parenteral administration
Procedure: The additional goal of this study was to estimate Stemokin’s pharmacokinetics using 3H-Stemokin.
The main radioactivity was accumulated in the bone marrow. This exceptional tropism to bone marrow could explain its significant hemostimulating activity (Table 4 and Table 5, line 3 underlying the extraordinary tropism of Stemokin to Bone marrow tissue).
Pharmacokinetics of Stemokin With parenteral administration of the drug, a Cmax in the blood was achieved after 5 min […]. A Cmax was observed 30–40 min after administration in bone marrow, liver, kidneys, and lymph nodes. The drug’s T1/2 is 24 h and is eliminated from the body within 72 h. The pharmacokinetics of Stemokin was studied using ^3H-Stemokin, obtained by thermal activation of gaseous tritium. 3H-Stemokin was administered intramuscularly to BDF1 female mice, and 72 h after a single dose, the levels of ^3H-radioactivity were determined in animal organs and tissues. The main amount of radioactivity, ~80%, was excreted within 24 h after administration of ^3H-Stemokin and was less than 5% of the administered dose (Table 4 and Table 5).

[4] = cited from earlier work
Description: Several cyclopeptides (A1–A5) indicated stimulatory hematopoietic activity sustained in invasive and oral administration.

CC[C@H](C)[C@H](NC(=O)CC[C@@H]1NC(=O)[C@H](CCC(=O)N[C@@H](Cc2c[nH]c3ccccc23)C(=O)O)NC1=O)C(=O)O [CP-88, Cyclo-[Glu(Ile)-Glu(Trp)]]
practically safe dose in humans with a single and course administration [1]: up to 100 μg/kg
acute toxicity: doses with no toxic effects [2]: up to 10,000 µg/kg

CC[C@H](C)[C@H](N)C(=O)N[C@@H](CCC(=O)O)C(=O)N[C@@H](Cc1c[nH]c2ccccc12)C(=O)O [Stemokin, Ile-Glu-Trp] (H-Ile-Glu-Trp-OH)
T1/2 [3]: 24 h
time to Cmax in bone marrow, liver, kidneys, and lymph nodes [3]: 30 to 40 min
time within which the drug is eliminated from the body [3]: ≤ 72 h

c[DAlaDGlu(DTrp)] [B1]
immuno and hemosuppressive activity (in words) [4]: immuno and hemosuppressive activity

c[DLysDGlu(DTrp)] [B5]
immuno and hemosuppressive activity (in words) [4]: immuno and hemosuppressive activity

c[DPheDGlu(DTrp)] [B6]
immuno and hemosuppressive activity (in words) [4]: immuno and hemosuppressive activity

c[DTyrDGlu(DTrp)] [B9]
immuno and hemosuppressive activity (in words) [4]: immuno and hemosuppressive activity

cyclo[L-Lys(N-acetyl-Glucosamine-N-acetyl-muramyl)-L-Glu(L-Trp)] [E1]
adjuvant activity (in words) [4]: adjuvant activity

cyclo[Lys(Palmitoyl)-Glu(D-Trp)] [E3]
adjuvant activity (in words) [4]: adjuvant activity
